Patent US20090292124A1, “Therapeutic Agent for Nausea and/or Vomiting” (TORAY INDUSTRIES, INC. a corporation of Japan, priority 2005, published 2009)
Marks after values point to notes of the source that are not given here.

Tests used:
Format in all cases: in vivo
[1] = system: ferrets; experiment: Influence on nausea and vomiting induced by morphine; conditions: test substance 5 mg/kg 30 min before morphine 0.6 mg/kg s.c.; for Appearance Frequency / Duration / Latent Time: mean ± standard error; for Latent Time: no symptom counted as 30 min; for Number of Individuals Presenting Symptoms (Number of Individuals Presenting Symptoms/Number of Cases): observed 30 min
Experimental: About 30 minutes after feeding, ferrets were transferred to observation cages, and the test substances were administered, respectively. Each test substance was dissolved in 5% xylitol, and administered at a dose of 5 mg/kg. Thirty minutes after administration of the test solution, 0.6 mg/kg of morphine was subcutaneously administered at a volume of 1 mL/kg, and the symptoms of vomiting were visually observed until 30 minutes after the administration of morphine.
The appearance frequency, latent time (the time from the administration of morphine to the first appearance of the symptom) and duration (the time from the first vomiting to the final vomiting) of nausea (rhythmical contractile motion of abdomen), of vomiting (vomiting behavior excreting vomit or analogous behavior thereof) and of the total of nausea and vomiting were counted, respectively.

[2] = Test of brain penetration (Test Example 2, oral); conditions: rat, Crj:CD(SD)IGS male rats, non-fasting, 30 mg/kg orally, brain and plasma 2 hours after administration, n=3
Experimental: Crj:CD(SD)IGS male rats of 7-8 weeks of age
Each of the test compounds in an amount of 90 mg was suspended in 0.5% methylcellulose 1500 cp to a total volume of 6 mL.
(§1) Each test compound was orally administered to non-fasting rats (30 mg/2 mL/kg, n=3), and total blood was collected from the lower aorta 2 hours after the administration. An aliquot of the blood was centrifuged (3000 rpm, 10 minutes, 4° C.), and the concentration of unchanged compound in the obtained blood plasma was measured by LC/MS/MS method.
(§2) After the above-described collection of the total blood, the brain was enucleated from each rat, and homogenized to prepare a 25% homogenate, followed by measurement of the concentration of unchanged compound by LC/MS/MS method.
From the obtained concentrations, Kp values were determined.

[3] = Test of brain penetration (Reference Example 1, intravenous); conditions: rat, Jcl-SD male rats, non-fasting, 0.5 mg/kg intravenously, brain and plasma 15 minutes after administration, n=2
Experimental: Jcl-SD male rats of 7 weeks of age
The test compound in an amount of 1.0 mg was dissolved in 0.8 mL of N,N-dimethylacetamide, and 0.8 mL of propylene glycol was added thereto.
as §1, with “The” for “Each”, “intravenously” for “orally”, “(0.5 mg/0.8” for “(30 mg/2”, “n=2) through the tail vein,” for “n=3),”, “15 minutes” for “2 hours”
as §2
From the obtained concentrations, Kp values were determined. As a result, the Kp value of NIT was 1.30.

With `Cn1c2c(c3ccccc31)C[C@@]1(O)[C@H]3Cc4ccc(O)c5c4[C@@]1(CCN3CC1CC1)[C@H]2O5` [Compound 1] the “Appearance Frequency” value ([1]; Nausea + Vomiting) was 0 ± 0, the Duration ([1]; Nausea + Vomiting) was 0 ± 0 min and the “Latent Time” value ([1]; Nausea + Vomiting) was 30 ± 0 min. The “Number of Individuals Presenting Symptoms (Number of Individuals Presenting Symptoms/Number of Cases)” value ([1]; Nausea + Vomiting) was 0/6##, the “Appearance Frequency” value ([1]; Nausea) was 0 ± 0 and the Duration ([1]; Nausea) was 0 ± 0 min. The “Latent Time” value ([1]; Nausea) was 30 ± 0 min, the “Number of Individuals Presenting Symptoms (Number of Individuals Presenting Symptoms/Number of Cases)” value ([1]; Nausea) was 0/6## and the “Appearance Frequency” value ([1]; Vomiting) was 0 ± 0. The Duration ([1]; Vomiting) was 0 ± 0 min, the “Latent Time” value ([1]; Vomiting) was 30 ± 0 min and the “Number of Individuals Presenting Symptoms (Number of Individuals Presenting Symptoms/Number of Cases)” value ([1]; Vomiting) was 0/6.
For `CCOC(=O)c1ccc2c3c([nH]c2c1)[C@@H]1Oc2c(O)ccc4c2[C@@]12CCN(CC1CC1)[C@H](C4)[C@]2(O)C3` [Compound 2], the Kp at 2 h [2] was 0.18, the “Appearance Frequency” value ([1]; Nausea + Vomiting) was 0 ± 0 and the Duration ([1]; Nausea + Vomiting) was 0 ± 0 min. The “Latent Time” value ([1]; Nausea + Vomiting) was 30 ± 0 min, the “Number of Individuals Presenting Symptoms (Number of Individuals Presenting Symptoms/Number of Cases)” value ([1]; Nausea + Vomiting) was 0/6## and the “Appearance Frequency” value ([1]; Nausea) was 0 ± 0. The Duration ([1]; Nausea) was 0 ± 0 min, the “Latent Time” value ([1]; Nausea) was 30 ± 0 min and the “Number of Individuals Presenting Symptoms (Number of Individuals Presenting Symptoms/Number of Cases)” value ([1]; Nausea) was 0/6##. For the same compound, the “Appearance Frequency” value ([1]; Vomiting) was 0 ± 0, the Duration ([1]; Vomiting) was 0 ± 0 min and the “Latent Time” value ([1]; Vomiting) was 30 ± 0 min. For the same compound, the “Number of Individuals Presenting Symptoms (Number of Individuals Presenting Symptoms/Number of Cases)” value ([1]; Vomiting) was 0/6.
With `Cc1ccc(/C=C2\C[C@@]3(O)[C@H]4Cc5ccc(O)c6c5[C@@]3(CCN4CC3CC3)[C@@H](O6)C2=O)cc1` [Compound 3] the Kp at 2 h [2] was 0.46, the “Appearance Frequency” value ([1]; Nausea + Vomiting) was 0 ± 0 and the Duration ([1]; Nausea + Vomiting) was 0 ± 0 min. The “Latent Time” value ([1]; Nausea + Vomiting) was 30 ± 0 min, the “Number of Individuals Presenting Symptoms (Number of Individuals Presenting Symptoms/Number of Cases)” value ([1]; Nausea + Vomiting) was 0/6## and the “Appearance Frequency” value ([1]; Nausea) was 0 ± 0. The Duration ([1]; Nausea) was 0 ± 0 min, the “Latent Time” value ([1]; Nausea) was 30 ± 0 min and the “Number of Individuals Presenting Symptoms (Number of Individuals Presenting Symptoms/Number of Cases)” value ([1]; Nausea) was 0/6##. For the same compound, the “Appearance Frequency” value ([1]; Vomiting) was 0 ± 0, the Duration ([1]; Vomiting) was 0 ± 0 min and the “Latent Time” value ([1]; Vomiting) was 30 ± 0 min. For the same compound, the “Number of Individuals Presenting Symptoms (Number of Individuals Presenting Symptoms/Number of Cases)” value ([1]; Vomiting) was 0/6.
In the case of `Oc1ccc2c3c1O[C@H]1c4[nH]c5ccccc5c4C[C@@]4(O)[C@@H](C2)N(CC2CC2)CC[C@]314` [NIT, naltrindole], the Kp at 0.25 h [3] is reported as 1.3.
